This note sets out measurements from US20190085024A1, “Alpha-Ketoamide Inhibitors Of Cysteine Proteases” (Phelix Therapeutics, priority 2017, published 2019).

Like-named read-outs stand apart in the source and are kept apart here.

Assay [1] deals with Cathepsin B (Homo sapiens, UniProt P07858). In words: Cathepsin B enzyme assay. The note with it: Cat B (μM), Ki by Morrison equation; pH 6.0, substrate Z-Phe-Arg-Amc.
The test system of assay [2] is EBOV WT (Ebola Wild Type). In words: microbe, parasite or virus in culture. The assay is classed as cell-based. As to conditions: read-out: EBOV WT (μM) (Ebola Wild Type).
Assay [3] deals with T1, Cat K (Homo sapiens, UniProt P43235).
T1 sequence (P43235 115-329): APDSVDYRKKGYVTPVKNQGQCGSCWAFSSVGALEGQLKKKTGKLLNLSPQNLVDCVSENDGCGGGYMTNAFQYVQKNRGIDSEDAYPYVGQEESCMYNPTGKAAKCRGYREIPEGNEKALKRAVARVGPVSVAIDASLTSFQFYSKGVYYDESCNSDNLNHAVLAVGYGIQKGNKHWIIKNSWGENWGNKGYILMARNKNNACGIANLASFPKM
In words: Cat K inhibition. In kind it is biochemical.

Assay [4] concerns the target Calpain. In words: Calpain enzyme assay. In kind it is biochemical. As to conditions: Ki by Morrison equation; pH 7.5, 5 mM CaCl2.
Assay [5] addresses Cat S (Homo sapiens, UniProt P25774). In words: Cat S inhibition. The assay is classed as biochemical.
For assay [6], the system named is MERS WT. In words: microbe, parasite or virus in culture. In kind it is cell-based.
The target of assay [7] is Cathepsin L (Homo sapiens, UniProt P07711). In words: Cathepsin L enzyme assay. As to conditions: Ki by Morrison equation; pH 5.5, substrate Z-Phe-Arg-Amc; read-out: Cat L. In kind it is biochemical. An excerpt:
Two wells contained DMSO only for controls.
Velocity was converted to μM/sec.

The mark [8] stands for this setting: Middle East respiratory syndrome-related coronavirus, read-out: MERS WT (μM).

Sequence of Cathepsin L (P07711 114-333, species assumed): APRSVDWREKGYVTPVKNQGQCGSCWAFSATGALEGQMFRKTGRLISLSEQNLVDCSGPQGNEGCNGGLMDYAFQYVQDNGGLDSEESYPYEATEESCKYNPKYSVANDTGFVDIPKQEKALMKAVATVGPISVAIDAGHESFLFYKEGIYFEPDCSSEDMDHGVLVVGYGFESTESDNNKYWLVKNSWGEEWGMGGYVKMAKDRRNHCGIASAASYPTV
Sequence of Cat S (P25774 115-331): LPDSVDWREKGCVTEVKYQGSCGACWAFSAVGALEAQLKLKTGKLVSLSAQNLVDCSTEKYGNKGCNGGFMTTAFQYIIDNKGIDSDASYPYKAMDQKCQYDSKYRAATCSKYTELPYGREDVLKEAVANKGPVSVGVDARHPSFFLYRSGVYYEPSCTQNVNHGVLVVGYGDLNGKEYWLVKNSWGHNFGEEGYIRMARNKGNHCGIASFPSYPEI

Take `CC(NC(=O)C(Cc1cccc2ccccc12)NC(=O)Cc1ccccc1)C(=O)C(=O)NC(Cc1ccccc1)C(=O)NC(C)(C)C(N)=O` (stereo not shown) [PHELIX205, N-(1-((1-amino-2-methyl-1-oxopropan-2-yl)amino)-1-oxo-3-phenylpropan-2-yl)-3-(3-(napthalen-1-yl)-2-(2-phenylacetamido)propanamido)-2-oxobutanamide]: the Ki in assay [1] came out at 0.977 µM; in assay [3], 6410 nM; in assay [4] it was 12500 nM; in assay [5] it was 229 nM; in assay [7], 70.4 nM. In addition, the IC50 is 21.9 µM in assay [2] (Zaire ebolavirus) and above 10 µM in assay [6] (setting [8]).

Consider `CC(NC(=O)C(Cc1ccccc1F)NC(=O)Cc1ccccc1)C(=O)C(=O)NC(Cc1ccccc1)C(=O)NC(C)(C)C(N)=O` (stereo not shown) [PHELIX207, N-(1-((1-amino-2-methyl-1-oxopropan-2-yl)amino)-1-oxo-3-phenylpropan-2-yl)-3-(3-(2-fluorophenyl)-2-(2-phenylacetamido)propanamido)-2-oxobutanamide], for which the Ki in assay [1] was 0.187 µM; in assay [3], 430 nM; in assay [4], above 10000 nM; in assay [5], 2.6 nM; in assay [7], 15 nM. For the same molecule, the values for the IC50 in assay [2] (Zaire ebolavirus) and in assay [6] (setting [8]) were 8.59 µM and 195 µM, respectively.

Consider `CC(NC(=O)C(Cc1ccc(F)cc1)NC(=O)Cc1ccccc1)C(=O)C(=O)NC(Cc1ccccc1)C(=O)NC(C)(C)C(N)=O` (stereo not shown) [PHELIX208, N-(1-((1-amino-2-methyl-1-oxopropan-2-yl)amino)-1-oxo-3-phenylpropan-2-yl)-3-(3-(4-fluorophenyl)-2-(2-phenylacetamido)propanamido)-2-oxobutanamide], for which the Ki in assay [1] was 0.42 µM; in assay [3], 1920 nM; in assay [4], above 10000 nM; in assay [5], 3.73 nM; in assay [7], 15.4 nM. For the same molecule, the IC50 in assay [2] (Zaire ebolavirus) amounted to 8.15 µM; in assay [6] (setting [8]), 184 µM.

Regarding `CC(NC(=O)C(Cc1cccc(C(F)(F)F)c1)NC(=O)Cc1ccccc1)C(=O)C(=O)NC(Cc1ccccc1)C(=O)NC(C)(C)C(N)=O` (stereo not shown) [PHELIX209, N-(1-((1-amino-2-methyl-1-oxopropan-2-yl)amino)-1-oxo-3-phenylpropan-2-yl)-2-oxo-3-(2-(2-phenylacetamido)-3-(3-(trifluoromethyl)phenyl)propanamido)butanamide], the Ki in assay [1] is 0.234 µM; in assay [3], above 10000 nM; in assay [4], above 10000 nM; in assay [5] it was 39.9 nM; in assay [7], 66.3 nM. The IC50 was 7.87 µM in assay [2] (Zaire ebolavirus) and above 10 µM in assay [6] (setting [8]).

In the case of `CC(NC(=O)C(Cc1cccc(F)c1)NC(=O)Cc1ccccc1)C(=O)C(=O)NC(Cc1ccccc1)C(=O)NC(C)(C)C(N)=O` (stereo not shown) [PHELIX212, N-(1-((1-amino-2-methyl-1-oxopropan-2-yl)amino)-1-oxo-3-phenylpropan-2-yl)-3-(3-(3-fluorophenyl)-2-(2-phenylacetamido)propanamido)-2-oxobutanamide], the Ki was 0.231 µM in assay [1]; 1200 nM in assay [3]; above 10000 nM in assay [4]; 13.7 nM in assay [5]; 20.3 nM in assay [7]. The values for the IC50 in assay [2] (Zaire ebolavirus) and in assay [6] (setting [8]) were 7.41 µM and 139 µM, respectively.

In the case of `CC(C)CC(NC(=O)C(=O)C(C)NC(=O)C(Cc1ccccc1)NC(=O)Cc1ccccc1)C(=O)NC(C)(C)C(N)=O` (stereo not shown) [PHELIX214, N-(1-amino-2-methyl-1-oxopropan-2-yl)-4-methyl-2-(2-oxo-3-(3-phenyl-2-(2-phenylacetamido)propanamido)butanamido)pentanamide], the Ki in assay [1] was found to be 5.79 µM; in assay [3] it was 2460 nM; in assay [4] it was 85400 nM; in assay [5] it was 39.8 nM; in assay [7] it was 281 nM. Moreover, the values for the IC50 in assay [2] (Zaire ebolavirus) and in assay [6] (setting [8]) were 24.2 µM and above 10 µM, respectively.

With `CC(NC(=O)C(Cc1ccccc1)NC(=O)Cc1ccccc1)C(=O)C(=O)NC(Cc1ccccc1)C(=O)NC(Cc1ccc2ccccc2c1)C(N)=O` (stereo not shown) [PHELIX220, N-(1-((1-amino-3-(naphthalen-2-yl)-1-oxopropan-2-yl)amino)-1-oxo-3-phenylpropan-2-yl)-2-oxo-3-(3-phenyl-2-(2-phenylacetamido)propanamido)butanamide], the Ki in assay [1] was 5.1 µM; in assay [3] it was 21.9 nM; in assay [4], above 10000 nM; in assay [5], 0.22 nM; in assay [7], 0.05 nM. The IC50 in assay [2] was determined as 0.06 µM; in assay [6] (read-out: MERS WT), 3.15 µM.

In the case of `CC(NC(=O)C(Cc1ccccc1)NC(=O)Cc1ccccc1)C(=O)C(=O)NC(Cc1ccccc1)C(=O)NC(Cc1ccc(C(C)(C)C)cc1)C(N)=O` (stereo not shown) [PHELIX221, N-(1-((1-amino-3-(4-(tert-butyl)phenyl)-1-oxopropan-2-yl)amino)-1-oxo-3-phenylpropan-2-yl)-2-oxo-3-(3-phenyl-2-(2-phenylacetamido)propanamido)butanamide], the Ki in assay [1] is 3.57 µM; in assay [3], 13.6 nM; in assay [4], above 10000 nM; in assay [5], 0.19 nM; in assay [7] it was 0.02 nM. For the same molecule, the IC50 is 0.03 µM in assay [2] (Zaire ebolavirus) and 1.32 µM in assay [6] (setting [8]).

For `CC(NC(=O)C(Cc1ccccc1)NC(=O)c1cccc(F)c1)C(=O)C(=O)NC(Cc1ccccc1)C(=O)NC(C)(C)C(N)=O` (stereo not shown) [PHELIX222, N-(1-((4-((1-((1-amino-2-methyl-1-oxopropan-2-yl)amino)-1-oxo-3-phenylpropan-2-yl)amino)-3,4-dioxobutan-2-yl)amino)-1-oxo-3-phenylpropan-2-yl)-3-fluorobenzamide], the Ki in assay [1] is 1.83 µM; in assay [3], 3320 nM; in assay [4], above 10000 nM; in assay [5] it was 17.7 nM; in assay [7] it was 25 nM. Besides, the IC50 in assay [2] (Zaire ebolavirus) was 5.19 µM; in assay [6] (setting [8]), 151 µM.

Regarding `CC(NC(=O)C(Cc1ccccc1)NC(=O)c1ccccc1)C(=O)C(=O)NC(Cc1ccccc1)C(=O)NC(C)(C)C(N)=O` (stereo not shown) [PHELIX223, N-(1-((4-((1-((1-amino-2-methyl-1-oxopropan-2-yl)amino)-1-oxo-3-phenylpropan-2-yl)amino)-3,4-dioxobutan-2-yl)amino)-1-oxo-3-phenylpropan-2-yl)benzamide], the Ki was 0.246 µM in assay [1]; 281 nM in assay [3]; above 10000 nM in assay [4]; 4.44 nM in assay [5]; 19.9 nM in assay [7]. Also, the IC50 amounted to 5.61 µM in assay [2] (Zaire ebolavirus) and 35.3 µM in assay [6] (setting [8]).

For `Cc1ccccc1CC(=O)NC(Cc1ccccc1)C(=O)NC(C)C(=O)C(=O)NC(Cc1ccccc1)C(=O)NC(C)(C)C(N)=O` (stereo not shown) [PHELIX226, N-(1-((1-amino-2-methyl-1-oxopropan-2-yl)amino)-1-oxo-3-phenylpropan-2-yl)-2-oxo-3-(3-phenyl-2-(2-(o-tolyl)acetamido)propanamido)butanamide], the Ki is 0.273 µM in assay [1], 1770 nM in assay [3], above 10000 nM in assay [4] and 9.54 nM in assay [7]. The values for the IC50 in assay [2] (Zaire ebolavirus) and in assay [6] (setting [8]) were 5.09 µM and 114 µM, respectively.

In the case of `CC(NC(=O)C(Cc1ccccc1)NC(=O)Cc1ccccc1)C(=O)C(=O)NC(CCCNC(=N)N)C(=O)NC(C)(C)C(N)=O` (stereo not shown) [PHELIX234, N-(1-amino-2-methyl-1-oxopropan-2-yl)-5-guanidino-2-(2-oxo-3-(3-phenyl-2-(2-phenylacetamido)propanamido)butanamido)pentanamide], the Ki in assay [1] is above 10 µM; in assay [3], 1080 nM; in assay [4] it was above 10000 nM; in assay [5], 78.1 nM; in assay [7] it was 129 nM.

With `CC(NC(=O)[C@H](Cc1ccccc1)NC(=O)C(c1ccccc1)c1ccccc1)C(=O)C(=O)N[C@@H](Cc1ccccc1)C(=O)NC(C)(C)C(N)=O` (stereo partly drawn) [PHELIX237, N-((S)-1-((1-amino-2-methyl-1-oxopropan-2-yl)amino)-1-oxo-3-phenylpropan-2-yl)-3-((S)-2-(2,2-diphenylacetamido)-3-phenylpropanamido)-2-oxobutanamide], the Ki was 0.0211 µM in assay [1]; 226 nM in assay [3]; above 10000 nM in assay [4]; 0.8 nM in assay [5]; 3.36 nM in assay [7].

On to `CC(C)CC(NC(=O)OCc1ccccc1)C(=O)NC(C)C(=O)C(=O)NCC(=O)NC(Cc1ccccc1)C(=O)NCCc1ccccc1` (stereo not shown) [PHELIX238, benzyl (5-benzyl-12,17-dimethyl-4,7,10,11,14-pentaoxo-1-phenyl-3,6,9,13-tetraazaoctadecan-15-yl)carbamate], for which the Ki is 0.313 µM in assay [1]; 27.7 nM in assay [3]; 91.1 nM in assay [4]; 20.3 nM in assay [5]; 3.88 nM in assay [7].

For `CC(NC(=O)C(Cc1ccccc1)NC(=O)Cc1ccccc1)C(=O)C(=O)NC(Cc1ccccc1)C(=O)NC(C)(C)C(N)=O` (stereo not shown) [PHELIX249, N-(1-((1-amino-2-methyl-1-oxopropan-2-yl)amino)-1-oxo-3-phenylpropan-2-yl)-2-oxo-3-(3-phenyl-2-(2-phenylacetamido)propanamido)butanamide], the Ki in assay [1] is 0.349 µM; in assay [3], 736 nM; in assay [4] it was above 10000 nM; in assay [5] it was 6.81 nM; in assay [7] it was 101 nM. The IC50 in assay [6] (setting [8]) is above 30 µM.
